Molecular target: T1, CKL4 (Arabidopsis thaliana, UniProt Q8LPI7)
T1 sequence (Q8LPI7 1-414): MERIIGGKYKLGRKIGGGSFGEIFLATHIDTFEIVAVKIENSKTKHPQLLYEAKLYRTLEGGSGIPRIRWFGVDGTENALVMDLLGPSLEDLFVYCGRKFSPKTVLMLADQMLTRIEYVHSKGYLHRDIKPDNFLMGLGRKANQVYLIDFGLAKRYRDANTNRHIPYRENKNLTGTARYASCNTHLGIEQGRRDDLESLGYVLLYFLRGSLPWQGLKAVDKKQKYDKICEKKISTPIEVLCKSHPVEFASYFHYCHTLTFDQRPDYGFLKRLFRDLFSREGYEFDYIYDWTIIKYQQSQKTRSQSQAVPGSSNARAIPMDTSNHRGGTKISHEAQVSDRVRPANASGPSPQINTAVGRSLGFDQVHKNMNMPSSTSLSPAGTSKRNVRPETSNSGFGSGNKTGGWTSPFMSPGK
Assay: in vitro kinase assay with isotope-labeled ATP
Format: biochemical

- IC50: ~5 µM
Compound: O=C1NCCc2[nH]c(-c3ccncc3)cc21 [PHA767491]
